Data reported in article PMC7038240 (Antimicrobial Agents and Chemotherapy, 2020).
Like-named read-outs stand apart in the source and are kept apart here.

What was measured:
Assay type in all cases: cell-based
[1] = system: M. morgannii; assay: organism not typed; settings: strain 769909; OXA-48
Text: (§1) The antibacterial activity of cefepime-taniborbactam was compared to that of ceftazidime-avibactam, ceftolozane-tazobactam, and cefepime-tazobactam against a diverse panel of Enterobacterales and P. aeruginosa clinical isolates with defined β-lactamase subtypes (see Table S1 in the supplemental material). IMP-producing strains were excluded, as none of the BLI-protected cephalosporins inhibited IMP sufficiently to provide a clinically relevant rescue of the partner β-lactam, a characteristic also shared by approved BLI-protected carbapenems (meropenem-vaborbactam and imipenem-relebactam). […] The antibacterial activity of the cephalosporins alone was included to ascertain the level of potentiation by the partnered BLI. BLIs were tested at a fixed concentration of 4 μg/ml in all combinations except cefepime-tazobactam, where tazobactam was fixed at a concentration of 8 μg/ml ([38]). The collection comprised 143 clinical isolates collected from 2005 and 2018.
(§2) The in vitro antibacterial activity of the β-lactams alone or in combination with the BLIs was determined in cation-adjusted Mueller-Hinton broth (CAMHB) microdilution assays according to CLSI recommendations ([51]). […]. The inocula for the broth microdilution assays were prepared by the broth culture method ([51]). […]

[2] = system: S. paratyphi; assay: microbe, parasite or virus in culture; settings: Salmonella enterica, strain 527, AmpC/TEM-1
Text: as §1, §2

[3] = system: C. freundii; assay: microbe, parasite or virus in culture; settings: Citrobacter freundii
Text: as §1, §2

[4] = system: S. marcescens; assay: microbe, parasite or virus in culture; settings: Serratia marcescens
Text: as §1, §2

[5] = system: K. aerogenes; assay: microbe, parasite or virus in culture; settings: Klebsiella aerogenes
Text: as §1, §2

[6] = system: S. typhi; assay: microbe, parasite or virus in culture; settings: Salmonella enterica, strain 26A, AmpC/TEM-1
Text: as §1, §2

[7] = system: K. pneumoniae; assay: microbe, parasite or virus in culture
Text: as §1, §2

[8] = system: K. oxytoca; assay: microbe, parasite or virus in culture; settings: Klebsiella oxytoca
Text: as §1, §2

[9] = system: P. aeruginosa; assay: microbe, parasite or virus in culture
Text: as §1, §2

In the case of `CC(C)(O/N=C(\C(=O)N[C@@H]1C(=O)N2C(C(=O)[O-])=C(C[n+]3ccccc3)CS[C@H]12)c1csc(N)n1)C(=O)O` [CAZ], the MIC [1] is reported as 2 mg/L, the MIC [2] is reported as 8 mg/L and the MIC ([3]; strain 134390, AmpC/TEM-1) is reported as 16 mg/L. It also gave an MIC ([3]; strain 241181, AmpC/TEM-163) of 8 mg/L, an MIC ([4]; strain 134434, AmpC/SHV-12/TEM-1) of 64 mg/L and an MIC ([4]; strain 192476, AmpC/TEM-1/SHV-5) of 128 mg/L. For the same molecule, the MIC ([4]; strain 192478, AmpC/SHV-12/TEM-1) was 128 mg/L, the MIC ([4]; strain 218073, AmpC/SHV-7/TEM-1) was 64 mg/L and the MIC ([5]; strain 73546, AmpC) was 32 mg/L. It also gave an MIC ([5]; strain 110099, AmpC/SHV-12) of 128 mg/L, an MIC ([5]; strain 111707, AmpC/TEM-1) of 32 mg/L and an MIC [6] of 64 mg/L. The MIC [7] was 64 mg/L, the MIC ([7]; Klebsiella pneumoniae, strain 6299, OXA-163, read-out: MIC) was 128 mg/L and the MIC ([7]; Klebsiella pneumoniae, strain 178279, SHV-12/TEM-1/AmpC, read-out: MIC) was 128 mg/L. For the same molecule, the MIC ([7]; Klebsiella pneumoniae, strain 196477, AmpC, read-out: MIC) was ≥ 256 mg/L, the MIC ([7]; Klebsiella pneumoniae, strain 212027, AmpC/FOX-5/TEM-1, read-out: MIC) was 128 mg/L and the MIC ([7]; Klebsiella pneumoniae, strain 515746, OXA-48, read-out: MIC) was 64 mg/L. For the same molecule, the MIC ([7]; Klebsiella pneumoniae, strain 664438, OXA-48, read-out: MIC) was 128 mg/L, the MIC ([7]; Klebsiella pneumoniae, strain 664439, OXA-48, read-out: MIC) was 128 mg/L and the MIC ([7]; Klebsiella pneumoniae, strain 722870, OXA-48, read-out: MIC) was 64 mg/L. The MIC ([7]; Klebsiella pneumoniae, strain 752334, OXA-48, read-out: MIC) was 128 mg/L, the MIC ([7]; Klebsiella pneumoniae, strain 769972, OXA-48, read-out: MIC) was 64 mg/L and the MIC ([7]; Klebsiella pneumoniae, strain 787422, OXA-48, read-out: MIC) was 8 mg/L. The MIC ([7]; Klebsiella pneumoniae, strain 856819, SHV-11/VIM-1, read-out: MIC) was ≥ 256 mg/L, the MIC ([7]; Klebsiella pneumoniae, strain 873460, SHV-30/CTX-M-15, read-out: MIC) was 64 mg/L and the MIC ([7]; Klebsiella pneumoniae, strain 874328, SHV-11/CTX-M-15/NDM-1, read-out: MIC) was ≥ 256 mg/L. The MIC ([7]; Klebsiella pneumoniae, strain 882956, SHV-31/DHA-1/VIM-1, read-out: MIC) was ≥ 256 mg/L, the MIC ([7]; Klebsiella pneumoniae, strain 890066, SHV-33/TEM-33/CTX-M-15/IMP-1, read-out: MIC) was ≥ 256 mg/L and the MIC ([7]; Klebsiella pneumoniae, strain 892694, SHV-12/TEM-1/CTX-M-15/OXA-48/ACT, read-out: MIC) was ≥ 256 mg/L. The MIC ([7]; Klebsiella pneumoniae, strain 919877, SHV-OSBL/VIM-1, read-out: MIC) was ≥ 256 mg/L, the MIC ([7]; Klebsiella pneumoniae, strain 1104864, SHV-OSBL(b)/VIM-1, read-out: MIC) was ≥ 256 mg/L and the MIC ([7]; Klebsiella pneumoniae, strain 1104866, SHV-OSBL(b)/VIM-1, read-out: MIC) was ≥ 256 mg/L. For the same molecule, the MIC ([7]; Klebsiella pneumoniae, strain 1280442, SHV-OSBL(b)/VIM-1, read-out: MIC) was ≥ 256 mg/L, the MIC ([7]; Klebsiella pneumoniae, strain CDC-0049, NDM, read-out: MIC) was ≥ 256 mg/L and the MIC ([7]; Klebsiella pneumoniae, strain CDC-0139, NDM-1, read-out: MIC) was ≥ 256 mg/L. For the same molecule, the MIC ([7]; Klebsiella pneumoniae, strain CDC-0145, NDM, read-out: MIC) was ≥ 256 mg/L, the MIC ([7]; Klebsiella pneumoniae, strain CDC-0148, NDM, read-out: MIC) was ≥ 256 mg/L and the MIC ([7]; Klebsiella pneumoniae, strain CDC-0152, NDM, read-out: MIC) was ≥ 256 mg/L. For the same molecule, the MIC ([7]; Klebsiella pneumoniae, strain DOV, OXA-48, read-out: MIC) was 64 mg/L, the MIC ([7]; Klebsiella pneumoniae, strain ESBL8 #1, TEM-1/SHV-12, read-out: MIC) was ≥ 256 mg/L and the MIC ([7]; Klebsiella pneumoniae, strain ESBL 10, SHV-12/TEM-1, read-out: MIC) was 128 mg/L. It also gave an MIC ([7]; Klebsiella pneumoniae, strain KIRK, OXA-162, read-out: MIC) of 128 mg/L, an MIC ([7]; Klebsiella pneumoniae, strain SI-C05, OXA-48, read-out: MIC) of 64 mg/L and an MIC ([7]; Klebsiella pneumoniae, strain SI-F100, SHV-5/TEM-1/CMY-2, read-out: MIC) of 32 mg/L. For the same molecule, the MIC [8] was ≥ 256 mg/L, the MIC ([8]; strain 134943, CMY-2/TEM-1, read-out: MIC) was 128 mg/L and the MIC [9] was 64 mg/L. For the same molecule, the MIC ([9]; Pseudomonas aeruginosa, ATCC27853, strain ATCC 27853, W.T., read-out: MIC) was 2 mg/L, the MIC ([9]; Pseudomonas aeruginosa, strain 10.257, PDC-50, read-out: MIC) was ≥ 256 mg/L and the MIC ([9]; Pseudomonas aeruginosa, strain 11.516, PDC-79, read-out: MIC) was 128 mg/L. For the same molecule, the MIC ([9]; Pseudomonas aeruginosa, strain 11.698, PDC-87, read-out: MIC) was ≥ 256 mg/L, the MIC ([9]; Pseudomonas aeruginosa, strain 11.813, PDC-91, read-out: MIC) was ≥ 256 mg/L and the MIC ([9]; Pseudomonas aeruginosa, strain 13.1716, PDC-74, read-out: MIC) was ≥ 256 mg/L.
